Data from the supplement of paper PMC10307832.

Key:
Assay in all cases: relative viability (nuclei count vs DMSO), 5 days (fraction); higher = more cells survive
Trametinib + Decitabine = compound: CC(=O)Nc1cccc(-n2c(=O)n(C3CC3)c(=O)c3c(Nc4ccc(I)cc4F)n(C)c(=O)c(C)c32)c1 [Trametinib] + Nc1ncn([C@H]2C[C@H](O)[C@@H](CO)O2)c(=O)n1 [Decitabine] (partner 2 µM)
Summary of the method: (§1)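 Relative viability is defined as nuclei in treated wells over nuclei in vehicle wells. Duplicate plates were run and medians reported. Lung cancer cell lines in 1536-well plates were dosed by pin tool one day after seeding, with one drug or with a fixed anchor-drug dose plus five library-drug doses (not always all listed) in √10 steps, and nuclei were counted after 5 days.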

[1] = compound: CN1C=C(C2=CC=CC=C21)/C=C\3/C4=C(C=CC=N4)NC3=O + Nc1ncn([C@H]2C[C@H](O)[C@@H](CO)O2)c(=O)n1 [Decitabine] (partner 2 µM)
Summary of the method: as §1

[2] = compound: CN1C=C(C2=CC=CC=C21)/C=C\3/C4=C(C=CC=N4)NC3=O + CC(=O)Nc1cccc(-n2c(=O)n(C3CC3)c(=O)c3c(Nc4ccc(I)cc4F)n(C)c(=O)c(C)c32)c1 [Trametinib] (partner 0.02 µM)
Summary of the method: as §1

Trametinib + Luminespib = compound: CC(=O)Nc1cccc(-n2c(=O)n(C3CC3)c(=O)c3c(Nc4ccc(I)cc4F)n(C)c(=O)c(C)c32)c1 [Trametinib] + CCNC(=O)c1noc(-c2cc(C(C)C)c(O)cc2O)c1-c1ccc(CN2CCOCC2)cc1 [Luminespib] (partner 0.01 µM)
Summary of the method: as §1

Row | Cell Line | relative viability (Trametinib + Decitabine; first compound 0.0025 µM) | relative viability (Trametinib + Decitabine; first compound 0.007906 µM) | relative viability (Trametinib + Decitabine; first compound 0.025 µM) | relative viability (Trametinib + Decitabine; first compound 0.07906 µM) | relative viability (Trametinib + Decitabine; first compound 0.25 µM) | relative viability ([1]; first compound 0.02 µM) | relative viability ([1]; first compound 0.06325 µM) | relative viability ([1]; first compound 0.2 µM) | relative viability ([1]; first compound 0.6325 µM) | relative viability ([1]; first compound 2 µM) | relative viability ([2]; first compound 0.02 µM) | relative viability ([2]; first compound 0.06325 µM) | relative viability ([2]; first compound 0.2 µM) | relative viability ([2]; first compound 0.6325 µM) | relative viability ([2]; first compound 2 µM) | relative viability (Trametinib + Luminespib; first compound 0.0025 µM) | relative viability (Trametinib + Luminespib; first compound 0.007906 µM) | relative viability (Trametinib + Luminespib; first compound 0.025 µM) | relative viability (Trametinib + Luminespib; first compound 0.07906 µM) | relative viability (Trametinib + Luminespib; first compound 0.25 µM)
1 | SW 1573 | 0.393 | 0.37 | 0.317 | 0.308 | 0.181 | 0.477 | 0.498 | 0.514 | 0.542 | 0.458 | 0.531 | 0.576 | 0.571 | 0.687 | 0.712 | 0.181 | 0.237 | 0.13 | 0.157 | 0.163
2 | COR-L23 | 0.428 | 0.435 | 0.329 | 0.372 | 0.293 | 0.446 | 0.372 | 0.403 | 0.408 | 0.435 | 0.519 | 0.575 | 0.576 | 0.545 | 0.606 | 0.638 | 0.462 | 0.306 | 0.248 | 0.236
3 | NCI-H1755 | 0.72 | 0.703 | 0.679 | 0.678 | 0.594 | 0.668 | 0.758 | 0.674 | 0.675 | 0.691 | 0.782 | 0.83 | 0.76 | 0.737 | 0.696 | 0.412 | 0.333 | 0.598 | 0.462 | 0.301
4 | LOU-NH91 | 0.804 | 0.776 | 0.734 | 0.71 | 0.544 | 0.77 | 0.799 | 0.771 | 0.713 | 0.788 | 0.749 | 0.751 | 0.746 | 0.678 | 0.74 | 0.348 | 0.365 | 0.278 | 0.305 | 0.279
5 | A549 | 0.224 | 0.245 | 0.209 | 0.168 | 0.0957 | 0.332 | 0.207 | 0.133 | 0.225 | 0.324 | – | – | – | – | – | – | – | – | – | –
6 | NCI-H1648 | 0.508 | 0.44 | 0.554 | 0.517 | 0.371 | 0.5 | 0.453 | 0.496 | 0.448 | 0.327 | 0.691 | 0.543 | 0.42 | 0.532 | 0.482 | – | – | – | – | –
7 | ABC-1 | 0.884 | 1.16 | 1.02 | 1.24 | 0.837 | 1.3 | 0.941 | 0.829 | 0.909 | 1.15 | – | – | – | – | – | 0.665 | 0.819 | 0.446 | 0.307 | 0.439
8 | NCI-H1563 | – | – | – | – | – | – | – | – | – | – | – | – | – | – | – | 0.515 | 0.481 | 0.505 | 0.476 | 0.569
9 | NCI-H1623 | – | – | – | – | – | – | – | – | – | – | – | – | – | – | – | 0.593 | 0.406 | 0.315 | 0.287 | 0.344
10 | NCI-H2228 | – | – | – | – | – | – | – | – | – | – | 0.379 | 0.464 | 0.24 | 0.285 | 0.566 | 0.15 | 0.0886 | 0.134 | 0.0863 | 0.112
11 | HCC-366 | 0.29 | 0.307 | 0.276 | 0.273 | 0.206 | 0.304 | 0.335 | 0.349 | 0.369 | 0.342 | 0.279 | 0.316 | 0.307 | 0.291 | 0.318 | – | – | – | – | –
